Data from patent publication US5187174A, “6'-deoxy-6'-halo-neplanocin A and its production” (Asahi Kasei Kogyo Kabushiki Kaisha, priority 1989, dated 1993).
≈ marks a conversion by molar mass, not a printed value.

Legend:
[1] = Resistance to adenosine deaminase; format: in vitro ADME, calf; details: bovine, pH 7.2, 25° C., read-out: Remaining Amount (%); for remaining at 0.5 h, 500 µM: 30 min.
Protocol: A solution 0.5 mM of each test sample is prepared by dissolving the test sample in 0.05M Tris-HCl buffer (pH 7.2). Adenosine deaminase (calf intestine, 400 U/ml glycerin, Boehringer 102091) is diluted ten times with 0.05M Tris-HCl buffer (pH 7.2) to prepare an adenosine deaminase solution.
0.5 ml of each sample solution is mixed with 10 μl of adenosine deaminase solution. The mixtures are allowed to stand in a water bath at 25° C., and 4 μl samples thereof are pipetted off after 1, 10, 20 and 30 minutes. The remaining sample is measured by HPLC under the following conditions:
Column: Licrosorb RP-18-5
Elution solvent: Control; 15% methanol
Elution speed: 1.0 ml/min.

L5178Y cells = experiment: Growth inhibition activity against L5178Y cells; format: cell-based; details: Mus musculus, 48 hours, 37° C.
Protocol: 1. Growth inhibition activity against L5178Y cells:
A solution of each test compound is prepared by dissolving or suspending the compound in RRMI 1640 medium containing 10% bovine serum by ultrasonication. A cell suspension of L5178Y cells, 1.1×10^4 cells/ml, each suspension having a volume of 1.8 ml, is added to each test tube. A solution (0.2 ml) of the test compound hereinabove is added thereto and the medium is tightly sealed and incubated at 37° C. for 48 hours. After incubation, the number of cells is measured using a Coulter counter and the growth ratio of the cells is determined.

cells = details: in words; Ref. 1; cited from earlier work
adenosine deaminase = details: in words; thought to occur, Ref. 1; cited from earlier work

SMILES | remaining at 10 min, 500 µM [1] [%] | remaining at 20 min, 500 µM [1] [%] | remaining at 0.5 h, 500 µM [1] [%] | IC50 (L5178Y cells) [µg/mL] | cytotoxic activity in vitro (cells) | conversion by adenosine deaminase in vivo (adenosine deaminase)
Nc1ncnc2c1ncn2C1C=C(CCl)C(O)C1O (stereo not shown) [Compound (1) X = Cl, 6'-deoxy-6'-chloroneplanocin A] | 101 | 99 | 102 | 0.3 (≈ 1.06 µM) |  | 
Nc1ncnc2c1ncn2C1C=C(CF)C(O)C1O (stereo not shown) [Compound (1) X = F, 6'-deoxy-6'-fluoroneplanocin A] | 99 | 98 | 98 | 1.1 (≈ 4.15 µM) |  | 
Nc1ncnc2c1ncn2C1C=C(CBr)C(O)C1O (stereo not shown) [Compound (1) X = Br, 6'-deoxy-6'-bromoneplanocin A] | 98 | 97 | 97 | 0.2 (≈ 0.613 µM) |  | 

The next lines start with results.

remaining at 10 min, 500 µM [1] [%] | remaining at 20 min, 500 µM [1] [%] | remaining at 0.5 h, 500 µM [1] [%] | SMILES | IC50 (L5178Y cells) [µg/mL] | cytotoxic activity in vitro (cells) | conversion by adenosine deaminase in vivo (adenosine deaminase)
97 | 96 | 96 | Nc1ncnc2c1ncn2C1C=C(CI)C(O)C1O (stereo not shown) [Compound (1) X = I, 6'-deoxy-6'-iodoneplanocin A] | 0.4 (≈ 1.07 µM) |  | 
6 | 0.4 | 0 | Nc1ncnc2c1ncn2[C@@H]1C=C(CO)[C@@H](O)[C@H]1O [Neplanocin A] | 0.2 (≈ 0.76 µM) | has cytotoxic activity in vitro | rapid conversion to an inert deamination-type compound (neplanocin D)
